# Test results: patent publication EP4806898A1, “HETEROARYL DERIVATIVE COMPOUND AND USE THEREOF” (Voronoi Inc., priority 2023, dated 2025)
# Target: T1, recombinant USP1 protein (Homo sapiens, UniProt O94782, DEL125-138/DEL229-408/DEL608-737)
# T1 sequence (O94782 with tags, fused parts or gaps DEL125-138/DEL229-408/DEL608-737): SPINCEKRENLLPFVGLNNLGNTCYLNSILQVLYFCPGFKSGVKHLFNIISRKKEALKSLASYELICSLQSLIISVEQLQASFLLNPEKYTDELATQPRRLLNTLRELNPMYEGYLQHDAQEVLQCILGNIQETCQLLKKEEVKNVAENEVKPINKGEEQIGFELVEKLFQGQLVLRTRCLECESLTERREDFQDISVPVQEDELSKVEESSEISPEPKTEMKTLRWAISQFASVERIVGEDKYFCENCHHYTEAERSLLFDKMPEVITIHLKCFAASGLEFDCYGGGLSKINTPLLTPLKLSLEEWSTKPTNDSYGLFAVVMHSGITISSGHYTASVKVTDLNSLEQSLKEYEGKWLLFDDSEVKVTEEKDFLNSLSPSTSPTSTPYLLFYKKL
# Experiment: Binding affinity to recombinant USP1 protein by differential scanning fluorimetry
# Details: compound 100 µM; 0.03 mg/mL USP1 (Δ1-66, Δ125-138, Δ229-408, Δ608-737); Tm with compound minus Tm with DMSO; read-out: ΔTm (°C)
# Protocol: <Experimental Example 1> Confirmation and evaluation of the binding affinity to recombinant USP1 protein
# To evaluate the binding affinity of the compounds of the present invention to the USP1 protein, the following experiment was performed using differential scanning fluorimetry.
# Recombinant 0.03 mg/mL USP1 (Δ1-66, Δ125-138, Δ229-408, Δ608-737) protein, dye reagent, and buffer solution (50 mM Tris-HCl pH 8.0, 150 mM NaCl, 2% glycerol, 1 mM DTT) were mixed and 19 µL of the mixture was dispensed into a well plate (MicroAmp Fast 96-Well Reaction plate, 0.1 mL). Each compound was injected at a final concentration of 100 µM in an amount of 1 µL, and the plate containing a total of 20 µL was sealed with MicroAmp Optical Adhesive Film. The melting temperature (Tm) of the protein in each well was measured using a real-time PCR (RT-PCR) device. The difference between the Tm of the sample containing the compound and the Tm containing DMSO is referred to as delta Tm (ΔTm), where a larger ΔTm value indicates stronger binding affinity. The degree of temperature at which the protein is modified in the presence of the compound compared to DMSO was calculated according to Equation 1 below: [formula]
row,Compound,ΔTm at 100 µM [°C]
1,"COc1ncnc(C2CC2)c1-c1ncc2cc(C(=O)NCCS(C)(=O)=O)n(Cc3ccc(-c4nc(C(F)(F)F)cn4C(C)C)cc3)c2n1 [Example 8, 2-(4-cyclopropyl-6-methoxypyrimidin-5-yl)-7-(4-(1-isopropyl-4-(trifluoromethyl)-1H-imidazol-2-yl)benzyl)-N-(2-(methylsulfonyl)ethyl)-7H-pyrrolo[2,3-d]pyrimidine-6-carboxamide]",> 5
2,"COc1ncnc(C2CC2)c1-c1ncc2cc(C(=O)N3CC4CCC(C3)N4)n(Cc3ccc(-c4nc(C(F)(F)F)cn4C(C)C)cc3)c2n1 [Example 16, (3,8-diazabicyclo[3 .2.1]octan-3-yl)(2-(4-cyclopropyl-6-methoxypyrimidin-5-yl)-7-(4-(1-isopropyl-4-(trifluoromethyl)-1H-imidazol-2-yl)benzyl)-7H-pyrrolo[2,3-d]pyrimidin-6-yl)methanone]",> 5
3,"COc1ncnc(C2CC2)c1-c1ncc2cc(C(=O)N3CCS(=O)(=O)CC3)n(Cc3ccc(-c4nc(C(F)(F)F)cn4C(C)C)cc3)c2n1 [Example 27, (2-(4-cyclopropyl-6-methoxypyrimid in-5-yl)-7-(4-(1-isopropyl-4-(trifluoromethyl)-1H-imidazol-2-yl)benzyl)-7H-pyrrolo[2,3-d]pyrimidin-6-yl) (1,1-dioxidothiomor pholino)methanone]",> 5
4,"CNC(=O)c1cc2cnc(-c3c(OC)ncnc3C3CC3)nc2n1Cc1ccc(-n2ccnn2)cc1 [Example 44, 7-(4-(1H-1,2,3-triazol-1-yl)benzyl)-2-(4-cyclopropyl-6-methoxypyrimidin-5-yl)-N-methyl-7H-pyrrolo[2,3-d]pyrimidine-6-carboxamide]",< 5
5,"COc1ncnc(C2CC2)c1-c1ncc2cc(C(=O)N3C[C@H]4CC[C@@H](C3)N4C3CC3)n(Cc3ccc(-c4nc(C(F)(F)F)cn4C(C)C)cc3)c2n1 [Example 46, (2-(4-cyclopropyl-6-methoxypyrimid in-5-yl)-7-(4-(1-isopropyl-4-(trifluoromethyl)-1H-imidazol-2-yl)benzyl)-7H-pyrrolo[2,3-d]pyrimidin-6-yl)((1R,5S)-8-cyclopropyl-3,8-diazabicyclo[3 .2.1]octan-3-yl)methanone]",> 5
6,"COc1ncnc(C2CC2)c1-c1ncc2cc(C(=O)N3CCNCC3)n(Cc3ccc(-c4nc(C(F)(F)F)cn4C(C)C)cc3)c2n1 [Example 54, (2-(4-cyclopropyl-6-methoxypyrimid in-5-yl)-7-(4-(1-isopropyl-4-(trifluoromethyl)-1H-imidazol-2-yl)benzyl)-7H-pyrrolo[2,3-d]pyrimidin-6-yl) (piperazin-1-yl)methanone]",> 5
7,"CNC(=O)c1cc2cnc(-c3c(C4CC4)nc[nH]c3=O)nc2n1Cc1ccc(-c2nc(C(F)(F)F)cn2C(C)C)cc1 [Example 59, 2-(4-cyclopropyl-6-oxo-1,6-dihydropyrimidin-5-yl)-7-(4-(1-isopropyl-4-(trifluoromethyl)-1H-imidazol-2-yl)benzyl)-N-methyl-7H-pyrrolo[2,3-d]pyrimidine-6-carboxamide]",< 5
8,"CCn1cnc(C2CC2)c(-c2ncc3cc(C(=O)NC)n(Cc4ccc(-c5nc(C(F)(F)F)cn5C(C)C)cc4)c3n2)c1=O [Example 62, 2-(4-cyclopropyl-1-ethyl-6-oxo-1,6-dihydropyrimidin-5-yl)-7-(4-(1-isopropyl-4-(trifluoromethyl)-1H-imidazol-2-yl)benzyl)-N-methyl-7H-pyrrolo[2,3-d]pyrimidine-6-carboxamide]",< 5
9,"COc1ncnc(C2CC2)c1-c1ncc2cc(C(=O)N3CC(F)(C#N)C3)n(Cc3ccc(-c4nc(C(F)(F)F)cn4C(C)C)cc3)c2n1 [Example 72, 1-(2-(4-cyclopropyl-6-methoxypyrimidin-5-yl)-7-(4-(1-isopropyl-4-(trifluoromethyl)-1H-imidazol-2-yl)benzyl)-7H-pyrrolo[2,3-d]pyrimidine-6-carbonyl)-3-fluoroazetidine-3-carbonitrile]",> 5
